This note sets out measurements from paper PMC3254626, “Targeting RNA Polymerase Primary σ^70 as a Therapeutic Strategy against Methicillin-Resistant Staphylococcus aureus by Antisense Peptide Nucleic Acid” (PLoS ONE, 2012).

≈ marks a conversion by molar mass, not a printed value. Read-outs that look alike come from different tables or passages of the source. Square brackets hold non-standard residues; d marks the D form. Peptide text beside a SMILES is read from it. Ahx = NCCCCCC(=O)O; βAla = NCCC(=O)O Where only a bound is given, the exact number is not on record here.

What all share (test): microbe, parasite or virus in culture
Common to all, as to type: cell-based, Staphylococcus aureus

One test deals with MRSA WHO-2. The conditions noted are these: read-out: MIC for S. aureus strains, WHO-2. The text has this: (§1) Secondary structure of rpoD mRNA predicted by RNA structure 4.6 software. […] Building from evidence that 12-base antisense PNAs was an effective length, five plausible target sites located in the region that satisfied both above aspects were chosen for synthesis of complementary antisense PNAs at 12-base length. Effective target site in rpoD was verified by modified MIC test of PPNA in four S. aureus strains with different characteristics in resistance phenotype. All PNAs used are covalently conjugated with the same cell penetrating peptide (KFF)3K at the carbon terminus (corresponding to the 3′ end of a conventional oligonucleotide).
(§2) Optimal anti-rpoD PPNA was selected by minimal inhibitory concentration (MIC) results determined for clinical isolates of pathogenic S. aureus species.
(§3) MICs were determined twice by the microdilution assay in sterilized 96-well polypropylene microtiter plates according to the broth microdilution guideline based on Good et al.. Briefly, single colony overnight culture of subjected bacterial cells was diluted to give a final inoculation at 10^5 CFU/mL in duplicate 100 µL Mueller Hinton (MH) broth in a low-binding 96-well microtiter plate. Stocks of PPNA, Scr PPNA and CPPs were added immediately to the indicated final concentrations. Plates were incubated at 35°C in aerobic environment for 24 h of overnight culture. MICs were the lowest PNA concentrations that prevented bacterial growth by visual inspection after overnight (24 h) growth. To verify the specific antisense effect, peptide was also conjugated to a scrambled PNA with a base sequence that was not complementary to the selected target site of rpoD mRNA. To control for nonspecific toxicity, the MIC of the control CPPs (KFF)3K and (RXR)4XB in all cases, was above the limit of measurement, which was 60 or 30 µM.

For another test, the system named is S. aureus ATCC29213. The conditions noted are these: read-out: MIC for S. aureus strains, ATCC 29213.
From the text: as §1, §2, §3

The subject of test [1] is MRSA XIJING (MDR clinical isolate). The conditions noted are these: broth microdilution, MH broth, inoculum 10^5 CFU/mL, 35°C, 24 h, visual inspection, determined twice, read-out: MIC for S. aureus strains, XIJING.
From the text: as §1, §2, §3

The next test relates to MRSA/VISA Mu50. The conditions noted are these: broth microdilution, MH broth, inoculum 10^5 CFU/mL, 35°C, 24 h, visual inspection, determined twice, read-out: MIC for S. aureus strains, Mu 50.
From the text: as §1, §2, §3
In general terms: Dilution methods test growth across graded concentrations, often in twofold steps.

Setting [2] is: Staphylococcus aureus, broth microdilution, MH broth, inoculum 10^5 CFU/mL, 35°C, 24 h, visual inspection, determined twice, MRSA.
The mark [3] stands for this setting: Staphylococcus aureus, ATCC29213, broth microdilution, MH broth, inoculum 10^5 CFU/mL, 35°C, 24 h, visual inspection, determined twice, antibiotic sensitive QC strain.

Consider `NCCCC[C@H](NC(=O)[C@H](Cc1ccccc1)NC(=O)[C@H](Cc1ccccc1)NC(=O)[C@H](CCCCN)NC(=O)[C@H](Cc1ccccc1)NC(=O)[C@H](Cc1ccccc1)NC(=O)[C@H](CCCCN)NC(=O)[C@H](Cc1ccccc1)NC(=O)[C@H](Cc1ccccc1)NC(=O)[C@@H](N)CCCCN)C(=O)O` [(KFF)3K] (H-KFFKFFKFFK-OH), for which the MIC with MRSA WHO-2 (WHO-2, 24 h) is on record as greater than 60 µM; in the test with S. aureus ATCC29213 (ATCC29213, 24 h), greater than 60 µM.
Take `Cc1onc(-c2ccccc2)c1C(=O)N[C@@H]1C(=O)N2[C@@H]1SC(C)(C)[C@@H]2C(=O)O` [oxacillin]: the MIC with MRSA WHO-2 (setting [2]) is 512 µM (≈ 206 µg/mL); in test [1] (Staphylococcus aureus) it was greater than 1020 µM; with MRSA/VISA Mu50 (Staphylococcus aureus), greater than 1020 µM; in the test with S. aureus ATCC29213 (setting [3]) it was 0.5 µM (≈ 0.201 µg/mL).
For `CC(C)(O/N=C(\C(=O)N[C@@H]1C(=O)N2C(C(=O)[O-])=C(C[n+]3ccccc3)CS[C@H]12)c1csc(N)n1)C(=O)O` [ceftazidine], the MIC is listed as 256 µM (≈ 140 µg/mL) in the test with MRSA WHO-2 (broth microdilution, MH broth, inoculum 10^5 CFU/mL, 35°C, 24 h, visual inspection, determined twice, MRSA); greater than 1024 µM in test [1]; 1024 µM (≈ 560 µg/mL) in the test with MRSA/VISA Mu50; 8 µM (≈ 4.37 µg/mL) in the test with S. aureus ATCC29213 (broth microdilution, MH broth, inoculum 10^5 CFU/mL, 35°C, 24 h, visual inspection, determined twice, antibiotic sensitive QC strain).
As to `CC1(C)S[C@@H]2[C@H](NC(=O)[C@H](N)c3ccccc3)C(=O)N2[C@H]1C(=O)O` [ampicillin], the MIC in the test with MRSA WHO-2 (setting [2]) was 256 µM (≈ 89.4 µg/mL); in test [1] (Staphylococcus aureus) it was greater than 1020 µM; in the test with MRSA/VISA Mu50 (Staphylococcus aureus), greater than 1020 µM; in the test on S. aureus ATCC29213 (setting [3]), 1 µM (≈ 0.349 µg/mL).
`N=C(N)NCCC[C@H](NC(=O)CCCCCNC(=O)[C@H](CCCNC(=N)N)NC(=O)[C@H](CCCNC(=N)N)NC(=O)CCCCCNC(=O)[C@H](CCCNC(=N)N)NC(=O)[C@H](CCCNC(=N)N)NC(=O)CCCCCNC(=O)[C@H](CCCNC(=N)N)NC(=O)[C@H](CCCNC(=N)N)NC(=O)CCCCCNC(=O)[C@@H](N)CCCNC(=N)N)C(=O)NCCCCCC(=O)NCCC(=O)O` [(RXR)4XB] (H-R[Ahx]RR[Ahx]RR[Ahx]RR[Ahx]R[Ahx][βAla]-OH): the MIC in the test on MRSA WHO-2 (WHO-2, 24 h) is reported as greater than 30 µM; in test [1], greater than 30 µM; in the test on MRSA/VISA Mu50, greater than 30 µM; in the test with S. aureus ATCC29213 (ATCC29213, 24 h) it was greater than 30 µM.
